According to PubChem BioAssay (NCI):
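1) Cells in 96-well plates. 2) Compound, 48 h, 5 concentrations. 3) Linear interpolation between surrounding doses. 4) Unreached endpoint = highest concentration. At the GI50, growth is halved. At the TGI there is no net growth.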

How the values were obtained:
Assay in all cases: NCI anticancer screen, dose series, 48 h
[1] = tested on: CCRF-CEM leukemia
[2] = tested on: MOLT-4 leukemia
[3] = tested on: OVCAR-3 ovarian
[4] = tested on: KM12 colon
[5] = tested on: EKVX NSCLC
[6] = tested on: 786-0 renal
[7] = tested on: NCI-H522 lung
[8] = tested on: SF-268 CNS
[9] = tested on: MDA-MB-435
[10] = tested on: OVCAR-8 ovarian

Structure (SMILES)	TGI [1] [µM]	TGI [2] [µM]	TGI [3] [µM]	TGI [4] [µM]	TGI [5] [µM]	TGI [6] [µM]	TGI [7] [µM]	TGI [8] [µM]	GI50 [9] [µM]	TGI [9] [µM]	GI50 [2] [µM]	GI50 [10] [µM]	TGI [10] [µM]	GI50 [3] [µM]	GI50 [4] [µM]	GI50 [6] [µM]	GI50 [8] [µM]	GI50 [1] [µM]	GI50 [7] [µM]
CCCC(=O)N[C@H]1C2C3CC4C5CC(C42)C1(C)C53 (some centres not stated)	> 100	> 100	> 100	> 100	> 100	> 100	> 100	> 100											
NCCOCCOCCNc1nc(-c2ccc(Cl)cc2)nc(N2CCN(c3ccccn3)CC2)n1		3.85	6.76	3.5		3.61		12.9	1.78	3.49	1.99	4.06	30.6	2.74	1.84	1.83	3.24		
CC(=O)[O-].[Mn+3].[O-]c1ccccc1C=NCCNCCN=Cc1ccccc1[O-]	> 100	> 100	> 100	> 100		> 100	> 100	> 100			> 100	> 100	> 100	> 100	> 100	> 100	> 100	86.1	66
OCc1ccc(-c2cscc2-c2ccc(CO)o2)o1	> 100	> 100	30.6	> 100		> 100	> 100	> 100	> 100	> 100	> 100	29.9	> 100	4.04	97.4	> 33.8	> 100	> 100	> 93.3
CN1CCc2c1nc(-c1ccc(Cl)cc1)c1c2N(C)CC1	55.2	31.4	22.8	45.7	> 100	> 100		> 100					> 100						
Cc1c(NC(=S)NC(=O)c2ccc([N+](=O)[O-])cc2)c(=O)n(-c2ccccc2)n1C	> 100	> 100	> 100	> 100	> 100	> 100	> 100	> 100					> 100						
COc1ccc(-c2nc(-c3nc4ccc(F)cc4[nH]3)c3ccccn23)cc1	> 100	> 100	27.1	> 100		61.5	25	57.8	8.05	> 100	3.83	3.76	23.4	6.14	7.03	8.82	7.2	4.39	4.49
COC(=O)CC(NC(=O)OCc1ccccc1)C(C(=O)OCc1ccccc1)C(C)(OC)OC (configuration not stated)	65.4	33	> 100		> 100	> 100		> 100					> 100						
COc1ccc(C(=O)C(CC2C(=O)NC(=O)NC2=O)c2ccc(OC)cc2)cc1 (configuration not stated)	> 100	> 100	> 100	> 100	> 100	> 100	> 100	> 100					> 100						
C[C@]12CC[C@H](O)CC1=CC[C@@H]1C2CC[C@]2(C)Nc3c(cnn3-c3ccccc3)CC12 (some centres not stated)	10.8	5.15	40.2	5.13	57.7	7.16							> 100						
COc1cc(NC(=O)CCSc2nc3ccc(C)cc3c(=O)n2Cc2ccccc2)cc(OC)c1OC	> 100	> 100	> 100	> 100		19.2	76.7	49.6	> 100	> 100	> 100	5.01	> 100	5.05	> 100	4.17	4.22	> 100	11.3
CCOC(=O)N1CCc2cc(OC)c(OC)cc2/C1=C\c1ccc(OC)c(OC)c1	72	91.1	82.3	85.6	89.2	52.1	77.6	> 100					92.7						
Cc1cc(N(CCC#N)CCC#N)ccc1N=Nc1ccc(Br)cc1	> 31.6	> 58.8	> 87.2	> 100	> 74.4	38.3	59.8	> 100					> 96.1						
Cc1ccc(S(=O)(=O)c2ccccc2[N+](=O)[O-])cc1	> 100	> 100	> 100	> 100	> 100	> 100							> 100						
